Measured values from patent publication US20090298150A1, “PRODUCTION OF SQUALENE USING YEAST” (priority 2008, published 2009).

Key:
[1] = tested on: Yarrowia lipolytica ATCC 90904; assay: Cultivation of Yarrowia lipolytica in CYM001 media with supplements; squalene and lipid production; type: cell-based; conditions: 30° C., 300 rpm, 120 h
Experimental: Environmental manipulations are tested to increase the net yield of squalene. These include (a) inhibiting ACCase expression and/or activity with oleic acid, olive or other vegetable oil(s), inositol, choline, soraphen, fluazifop, and clethodim or other ACCase inhibiting herbicides, (b) inhibiting squalene epoxidase expression and/or activity with terbinafine, tolnaftate, and ergosterol or other squalene epoxidase inhibiting fungicides, (c) manipulating the C/N ratio in glycerol-based media (in the starting media or by add-ins), (d) varying the nitrogen source in the media (organic vs. inorganic vs. simple/complex), (e) varying carbon addition regimes (e.g. batch vs. feeding), (f) examining the effect of depleting nutrients other than carbon source, (g) varying the carbon source to include mixtures of sugars, sugar alcohols, alcohols, polyalcohols, and organic acids, (h) selecting for growth on HMGR-inhibitory compounds such as lovastatin or other statin-type inhibitors, and (i) selecting for high oil production in culture using lipophillic dyes or stains and/or by analyzing for extractable lipids using, for example, gravimetric or gas chromatographic methods.
For example, Yarrowia lipolytica ATCC 90904 was cultivated in high Carbon/Nitrogen ratio media (C/N=420, Li, Y-H., Liu, B., Zhao, Z-B., and Bai, F-W. 2006 “Optimized Culture Medium and Fermentation Conditions for Lipid Production by Rhodosporidium toruloides” Chinese Journal of Biotechnology 22(4): 650-656) (hereinafter “CYM001 Media”) supplemented with 0 to 50 μg/ml terbinafine at 30° C., 300 rpm for 120 h. […]
In a further example, Yarrowia lipolytica ATCC 90904 was cultivated in CYM001 media supplemented with 0 to 200 μM clethodim at 30° C., 300 rpm for 120 h.

[2] = tested on: Cryptococcus curvatus; assay: Cryptococcus curvatus growth on carbon sources (cell mass in culture); conditions: 12% w/v glycerol; Yeast Extract-based rich media; after 5 days
Experimental: Cryptococcus curvatus growth was evaluated to determine the best carbon sources to maximize its cell mass in culture. In a Yeast Extract-based rich media (10 g/L yeast extract, 20 g/L peptone), C. curvatus grew well in 2-20% w/v glucose, achieving a maximal level of 55 g/L cell dry weight (CDW) at 16% w/v glucose and above after 4 days. Similarly, C. curvatus grew in the same media with 3-12% w/v glycerol, achieving a CDW of 40 g/L in 12% w/v glycerol after 5 days. C. curvatus was also grown in Biodiesel glycerol (Imperial Western Products, Coachella, Calif.) up to 3.5% w/v, resulting in 23 g/L CDW.

## CCCCCCCC/C=C\CCCCCCCC(=O)O [Oleic acid]
[1]; 10 μl/ml Oleic acid, CYM001 media
  lipid accumulation, % lipid/CDW (cell dry weight): 63.3 % lipid/CDW

## OCC(O)CO [glycerol]
[2]
  cell dry weight (CDW): 40 g/L

## CN(C/C=C/C#CC(C)(C)C)Cc1cccc2ccccc12 [terbinafine]
[1]; 12.5 μg/ml or higher terbinafine, CYM001 Media
  squalene as % of total lipid: up to 18.5%

## CCSC(C)CC1CC(=O)C(/C(CC)=N/OC/C=C/Cl)=C(O)C1 (stereo not shown) [clethodim]
[1]; 200 μM clethodim, CYM001 media
  increase in the yield (mg) of squalene per 60-ml flask: 60 fold
